In one experiment the target is T1, human kinase Mps-1 (Homo sapiens, UniProt P33981).
T1 construct: N-terminally GST-tagged human full length recombinant Mps-1 kinase; GST (N); purchased Invitrogen, Karslruhe, Germany PV4071
T1 sequence (P33981 1-857): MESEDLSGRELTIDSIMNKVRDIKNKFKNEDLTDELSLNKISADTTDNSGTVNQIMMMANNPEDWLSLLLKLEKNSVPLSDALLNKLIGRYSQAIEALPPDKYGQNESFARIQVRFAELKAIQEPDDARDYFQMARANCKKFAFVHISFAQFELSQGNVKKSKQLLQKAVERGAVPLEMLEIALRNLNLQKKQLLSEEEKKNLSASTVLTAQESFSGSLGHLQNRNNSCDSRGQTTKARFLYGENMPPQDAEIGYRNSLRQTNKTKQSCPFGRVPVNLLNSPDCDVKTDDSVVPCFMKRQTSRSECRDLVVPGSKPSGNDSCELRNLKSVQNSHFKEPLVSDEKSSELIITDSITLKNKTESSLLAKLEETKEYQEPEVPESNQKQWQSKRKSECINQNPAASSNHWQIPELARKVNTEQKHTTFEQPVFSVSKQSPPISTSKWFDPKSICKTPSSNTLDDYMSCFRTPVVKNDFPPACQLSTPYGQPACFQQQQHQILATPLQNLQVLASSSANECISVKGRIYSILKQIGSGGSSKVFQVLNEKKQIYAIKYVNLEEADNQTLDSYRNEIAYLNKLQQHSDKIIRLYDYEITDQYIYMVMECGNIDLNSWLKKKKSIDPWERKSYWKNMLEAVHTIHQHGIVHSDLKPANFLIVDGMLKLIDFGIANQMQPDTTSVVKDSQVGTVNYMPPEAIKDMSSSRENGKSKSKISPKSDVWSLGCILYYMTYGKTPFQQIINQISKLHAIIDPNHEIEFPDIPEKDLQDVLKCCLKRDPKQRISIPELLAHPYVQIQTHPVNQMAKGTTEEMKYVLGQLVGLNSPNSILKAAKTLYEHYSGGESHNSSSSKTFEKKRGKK
Briefly: Mps-1 kinase assay (TR-FRET). It is filed as biochemical. The following applies: Mps1 IC50 [nM], N-terminally GST-tagged human full length recombinant Mps-1; 10 μM ATP; 1 μM biotinylated peptide substrate; 60 min at 22° C.
As for `Cc1cc(-c2cnc3c(NCc4ccnn4C)nccn23)ccc1C(=O)NC1CC1` [Example 5-5, N-cyclopropyl-2-methyl-4-(8-{[(1-methyl-1H-pyrazol-5-yl)methyl]amino}imi-dazo[1,2-a]pyrazin-3-yl)benzamide], the IC50 (in general, the point on the concentration scale where inhibition reaches its midpoint) was 67 nM.

With `Cc1cc(-c2cnc3c(NCc4cccnc4)nccn23)ccc1C(=O)NC1CC1` [Example 7-108, N-cyclopropyl-2-methyl-4-{8-[(pyridin-3-ylmethyl)amino]imi-dazo[1,2-a]pyrazin-3-yl}benzamide], the IC50 came out at 123 nM.

For `CC(C)(C)CNc1nccn2c(-c3ccc(C(=O)NC4CC4)cc3)cnc12` [Example 7-20, N-cyclopropyl-4-{8-[(2,2-dimethylpropyl)amino]imi-dazo[1,2-a]pyrazin-3-yl}benzamide], the half-inhibitory concentration (IC50) was 30.2 nM.

As for `COc1ccccc1CNc1nccn2c(-c3ccc(C(=O)NC4CC4)cc3)cnc12` [Example 4-8, N-cyclopropyl-4-{8-[(2-methoxybenzyl)amino]imi-dazo[1,2-a]pyrazin-3-yl}benzamide], the IC50 amounted to 85.5 nM.

Turning to `CCOC(C)CNc1nccn2c(-c3ccc(C(=O)NC4CC4)c(C)c3)cnc12` (stereo not shown) [Example 7-121, N-cyclopropyl-4-{8-[(2-ethoxypropyl)amino]imi-dazo[1,2-a]pyrazin-3-yl}-2-methylbenzamide], the IC50 came out at 154 nM.

Regarding `Cc1cc(-c2cnc3c(NCc4c(F)cccc4F)nccn23)ccc1C(=O)NC1CC1` [Example 7-127, N-cyclopropyl-4-{8-[(2,6-difluorobenzyl)amino]imi-dazo[1,2-a]pyrazin-3-yl}-2-methylbenzamide], the IC50 is 47.1 nM.

On to `Cc1cccc(CNc2nccn3c(-c4ccc(C(=O)NC5CC5)cc4)cnc23)c1` [Example 7-29, N-cyclopropyl-4-{8-[(3-methylbenzyl)amino]imi-dazo[1,2-a]pyrazin-3-yl}benzamide], for which the IC50 was found to be 100 nM.

With `COCCCNc1nccn2c(-c3ccc(C(=O)NC4CC4)c(C)c3)cnc12` [Example 7-116, N-cyclopropyl-4-{8-[(3-methoxypropyl)amino]imi-dazo[1,2-a]pyrazin-3-yl}-2-methylbenzamide], the IC50 came to 141 nM.

For `CC(O)CNc1nccn2c(-c3ccc(C(=O)NC4CC4)c(O)c3)cnc12` (stereo not shown) [Example 7-84, N-cyclopropyl-2-hydroxy-4-{8-[(2-hydroxypropyl)amino]imi-dazo[1,2-a]pyrazin-3-yl}benzamide], the IC50 came to 96.9 nM.

On to `Cc1cc(-c2cnc3c(NCc4ccn(C)n4)nccn23)ccc1C(=O)NC1CC1` [Example 7-119, N-cyclopropyl-2-methyl-4-(8-{[(1-methyl-1H-pyrazol-3-yl)methyl]amino}imi-dazo[1,2-a]pyrazin-3-yl)benzamide], for which the IC50 amounted to 298 nM.

Consider `COc1cc(CNc2nccn3c(-c4ccc(C(=O)NC5CC5)cc4)cnc23)cc(OC)c1OC` [Example 7-13, N-cyclopropyl-4-{8-[(3,4,5-trimethoxybenzyl)amino]imi-dazo[1,2-a]pyrazin-3-yl}benzamide], for which the IC50 came to 429 nM.

As to `Cc1ccccc1CNc1nccn2c(-c3ccc(C(=O)NC4CC4)cc3)cnc12` [Example 7-15, N-cyclopropyl-4-{8-[(2-methylbenzyl)amino]imi-dazo[1,2-a]pyrazin-3-yl}benzamide], the half-maximal inhibitory concentration (IC50) is 88.8 nM.

With `O=C(NC1CC1)c1ccc(-c2cnc3c(NCc4ccc(F)cc4)nccn23)cc1` [Example 7-31, N-cyclopropyl-4-{8-[(4-fluorobenzyl)amino]imi-dazo[1,2-a]pyrazin-3-yl}benzamide], the IC50 amounted to 17.4 nM.

With `Cc1cc(-c2cnc3c(NCc4ccc(F)cc4)nccn23)ccc1C(=O)NC1CC1` [Example 7-98, N-cyclopropyl-4-{8-[(4-fluorobenzyl)amino]imi-dazo[1,2-a]pyrazin-3-yl}-2-methylbenzamide], the IC50 came to 39.6 nM.

Take `Cc1cc(-c2cnc3c(NCC(O)C(F)(F)F)nccn23)ccc1C(=O)NC1CC1` (stereo not shown) [Example 7-113, N-cyclopropyl-2-methyl-4-{8-[(3,3,3-trifluoro-2-hydroxypropyl)amino]imi-dazo[1,2-a]pyrazin-3-yl}benzamide]: the IC50 came to 36.7 nM.

With `O=C(NC1CC1)c1ccc(-c2cnc3c(NCc4ccccc4F)nccn23)cc1` [Example 4-3, N-cyclopropyl-4-{8-[(2-fluorobenzyl)amino]imi-dazo[1,2-a]pyrazin-3-yl}benzamide], the IC50 stood at 11 nM.

On to `Cn1cc(CNc2nccn3c(-c4ccc(C(=O)NC5CC5)c(O)c4)cnc23)cn1` [Example 7-85, N-cyclopropyl-2-hydroxy-4-(8-{[(1-methyl-1H-pyrazol-4-yl)methyl]amino}imi-dazo[1,2-a]pyrazin-3-yl)benzamide], for which the IC50 was determined as 105 nM.

Regarding `Cc1cc(-c2cnc3c(NCC4CCCCO4)nccn23)ccc1C(=O)NC1CC1` (stereo not shown) [Example 7-124, N-cyclopropyl-2-methyl-4-{8-[(tetrahydro-2H-pyran-2-ylmethyl)amino]imi-dazo[1,2-a]pyrazin-3-yl}benzamide], the IC50 amounted to 80.8 nM.

As to `N#CCCNc1nccn2c(-c3ccc(C(=O)NC4CC4)c(O)c3)cnc12` [Example 7-81, 4-{8-[(2-cyanoethyl)amino]imi-dazo[1,2-a]pyrazin-3-yl}-N-cyclopropyl-2-hydroxybenzamide], the concentration for half-maximal inhibition (IC50) stood at 51.3 nM.

Regarding `Cn1ccc(CNc2nccn3c(-c4ccc(C(=O)NC5CC5)c(Cl)c4)cnc23)n1` [Example 7-60, 2-chloro-N-cyclopropyl-4-(8-{[(1-methyl-1H-pyrazol-3-yl)methyl]amino}imi-dazo[1,2-a]pyrazin-3-yl)benzamide], the half-maximal inhibitory concentration (IC50) was determined as 767 nM.

For `O=C(NC1CC1)c1ccc(-c2cnc3c(NCCCN4CCCC4=O)nccn23)cc1` [Example 7-28, N-cyclopropyl-4-(8-{[3-(2-oxopyrrolidin-1-yl)propyl]amino}imi-dazo[1,2-a]pyrazin-3-yl)benzamide], the IC50 is 1270 nM.

As to `O=C(NC1CC1)c1ccc(-c2cnc3c(NCCCN4CCOCC4)nccn23)cc1O` [Example 7-71, N-cyclopropyl-2-hydroxy-4-(8-{[3-(morpholin-4-yl)propyl]amino}imi-dazo[1,2-a]pyrazin-3-yl)benzamide], the IC50 was 304 nM.

On to `O=C(NC1CC1)c1ccc(-c2cnc3c(NCc4ccc(F)cc4)nccn23)cc1O` [Example 7-74, N-cyclopropyl-4-{8-[(4-fluorobenzyl)amino]imi-dazo[1,2-a]pyrazin-3-yl}-2-hydroxybenzamide], for which the IC50 was 98.2 nM.

`O=C(NC1CC1)c1ccc(-c2cnc3c(NCC4CCCCO4)nccn23)cc1O` (stereo not shown) [Example 7-89, N-cyclopropyl-2-hydroxy-4-{8-[(tetrahydro-2H-pyran-2-ylmethyl)amino]imi-dazo[1,2-a]pyrazin-3-yl}benzamide]: the IC50 is 247 nM.

Regarding `NS(=O)(=O)CCNc1nccn2c(-c3ccc(C(=O)NC4CC4)cc3)cnc12` [Example 7-32, N-cyclopropyl-4-{8-[(2-sulfamoylethyl)amino]imi-dazo[1,2-a]pyrazin-3-yl}benzamide], the IC50 is 57.2 nM.

For the compound `Cc1cc(-c2cnc3c(NCc4ccc(Cl)s4)nccn23)ccc1C(=O)NC1CC1` [Example 7-123, 4-(8-{[(5-chlorothiophen-2-yl)methyl]amino}imi-dazo[1,2-a]pyrazin-3-yl)-N-cyclopropyl-2-methylbenzamide], the IC50 was determined as 22.5 nM.

The experiment is the same for the next values; noted with them: N-terminally GST-tagged human full length recombinant Mps-1; 10 μM ATP; 1 μM biotinylated peptide substrate; 60 min at 22° C.; read-out: Mps1 IC50.
Take `CCCCNc1nccn2c(-c3ccc(C(=O)NC4CC4)c(Cl)c3)cnc12` [Example 7-44, 4-[8-(butylamino)imidazo[1,2-a]pyrazin-3-yl]-2-chloro-N-cyclopropylbenzamide]: the IC50 was 54.2 nM.

With `CCNc1nccn2c(-c3ccc(C(=O)NC4CC4)cc3)cnc12` [Example 7-10, N-cyclopropyl-4-[8-(ethylamino)imidazo[1,2-a]pyrazin-3-yl]benzamide], the IC50 worked out at 115 nM.

`O=C(NC1CC1)c1ccc(-c2cnc3c(NCCN4CCOCC4)nccn23)cc1` [Example 7-4, N-cyclopropyl-4-(8-{[2-(morpholin-4-yl)ethyl]amino}imidazo[1,2-a]pyrazin-3-yl)benzamide]: the IC50 came to 341 nM.

In the case of `CCCCCNc1nccn2c(-c3ccc(C(=O)NC4CC4)cc3)cnc12` [Example 7-1, N-cyclopropyl-4-[8-(pentylamino)imidazo[1,2-a]pyrazin-3-yl]benzamide], the IC50 came out at 22.5 nM.

Consider `O=C(NC1CC1)c1ccc(-c2cnc3c(NCC4CCCO4)nccn23)cc1Cl` (stereo not shown) [Example 7-34, 2-chloro-N-cyclopropyl-4-{8-[(tetrahydrofuran-2-ylmethyl)amino]imidazo[1,2-a]pyrazin-3-yl}benzamide], for which the IC50 is 211 nM.

The values above are taken from patent publication US20130303532A1, “IMIDAZOPYRAZINES FOR USE AS MPS-1 AND TKK INHIBITORS IN THE TREATMENT HYPERPROLIFERATIVE DISORDERS” (BAYER INTELLECTUAL PROPERTY GmbH, priority 2010, published 2013).
